{
  "source": "ChEMBL document CHEMBL5126595",
  "about": "“Identification and anti-tumor evaluation of 3-acyl-indol-based 2,4-diarylaminopyrimidine analogues as potent ALK inhibitors capable of overcoming drug-resistant mutants” (Eur J Med Chem, 2022)",
  "key": {"[1]": {"assay": "AUC (0 to infinity) in Sprague-Dawley rat at 10 mg/kg, po by LC-MS/MS analysis", "type": "ADME, organism-based", "parameters": "time infinity, dose 10 mg/kg, route po", "conditions": "in vivo"}, "NCI-H2228 [2]": {"system": "NCI-H2228", "assay": "Induction of cell cycle arrest in human NCI-H2228 cells assessed as decrease in S phase cells at 100 nM incubated for 48 hrs by PI/RNase staining based flow cytometry analysis (reference value: 34.90 %)", "type": "functional", "parameters": "scale not given: the % may be the effect or the level left"}, "[3]": {"target": "T1, ALK tyrosine kinase receptor (Homo sapiens, UniProt Q9UM73)", "assay": "Inhibition of ALK downstream signalling in human NCI-H2228 cells assessed as reduction in phosphorylated AKT level measured after 24 hrs by Western blot analysis", "type": "cell-based", "conditions": "dose 25-100 nM, DDE = dose-dependent effect"}, "KARPAS-299": {"system": "KARPAS-299", "assay": "Antiproliferative activity against NPM-ALK positive human KARPAS-299 cells assessed as inhibition of cell growth incubated for 72 hrs by MTT assay", "type": "functional, cell-based", "conditions": "KARPAS-299, 72 h"}, "NCI-H1581": {"system": "NCI-H1581", "assay": "Antiproliferative activity against human NC-H1581 cells assessed as inhibition of cell growth incubated for 72 hrs by MTT assay", "type": "functional, cell-based", "conditions": "NCI-H1581, 72 h"}, "[4]": {"assay": "Cmax in Sprague-Dawley rat at 10 mg/kg, po by LC-MS/MS analysis", "type": "ADME, organism-based", "parameters": "dose 10 mg/kg, route po", "conditions": "in vivo"}, "NCI-H2228 [5]": {"system": "NCI-H2228", "assay": "Induction of apoptosis in human NCI-H2228 cells assessed as chromatin condensation by measuring brilliant blue fluorescence at 25 to 100 nM incubated for 48 hrs by Hoechst 33342 staining based fluorescence microscopic analysis", "type": "functional, cell-based", "conditions": "dose 25-100 nM"}, "NCI-H2228 [6]": {"system": "NCI-H2228", "assay": "Induction of apoptosis in human NCI-H2228 cells assessed as late apoptotic cells at 100 nM incubated for 48 hrs by AnnexinV-FITC/propidium iodide staining based flow cytometry analysis (reference value: 4.72 %)", "type": "functional"}, "NCI-H2228 [7]": {"system": "NCI-H2228", "assay": "Induction of cell cycle arrest in human NCI-H2228 cells assessed as decrease in S phase cells at 25 nM incubated for 48 hrs by PI/RNase staining based flow cytometry analysis (reference value: 34.90 %)", "type": "functional", "parameters": "scale not given: the % may be the effect or the level left"}, "[8]": {"target": "T1, ALK tyrosine kinase receptor", "assay": "Inhibition of N-terminal GST-tagged human wild type ALK (1058 to 1620 residues) cytoplasmic domain expressed in baculovirus infected Sf21 cells incubated for 1 hrs in the presence of ATP by mobility shift assay"}, "NCI-H2228 [9]": {"system": "NCI-H2228", "assay": "Induction of cell cycle arrest in human NCI-H2228 cells assessed as decrease in S phase cells at 50 nM incubated for 48 hrs by PI/RNase staining based flow cytometry analysis (reference value: 34.90 %)", "type": "functional", "parameters": "scale not given: the % may be the effect or the level left"}, "NCI-H2228 [10]": {"system": "NCI-H2228", "assay": "Inhibition of cell migration in human NCI-H2228 cells at 2.5 to 10 nM by inverted microscopic based cell scratch assay", "type": "functional", "conditions": "dose 2.5-10 nM, time 24-48 hrs, TDE = time-dependent effect"}},
  "note": "Calls of active or inactive are those of the source. The calls are words filed in the database; no cut-off is given here.",
  "data": [
    {"compound": "CNC(=O)c1ccccc1Nc1nc(Nc2ccc3c(C(=O)N(C)C)c(C)[nH]c3c2)ncc1Cl", "values": [
      {"measurement": "AUC(0-inf)", "setting": "[1]", "value": 1.76, "unit": "µg·h/mL"},
      {"measurement": "Activity", "setting": "NCI-H2228 [2]", "value": 29.32, "unit": "%"},
      {"measurement": "inhibition", "setting": "[3]", "value": "Dde"},
      {"measurement": "IC50", "setting": "KARPAS-299", "value": 0.011, "unit": "µM"},
      {"measurement": "IC50", "setting": "NCI-H1581", "value": 0.957, "unit": "µM"},
      {"measurement": "Cmax", "setting": "[4]", "value": 0.346, "unit": "µg/mL"},
      {"measurement": "Activity", "setting": "NCI-H2228 [5]", "value": "Active"},
      {"measurement": "Activity", "setting": "NCI-H2228 [6]", "value": 23, "unit": "%"},
      {"measurement": "Activity", "setting": "NCI-H2228 [7]", "value": 34.73, "unit": "%"},
      {"measurement": "IC50", "setting": "[8]", "value": 0.0023, "unit": "µM"},
      {"measurement": "Activity", "setting": "NCI-H2228 [9]", "value": 32.28, "unit": "%"},
      {"measurement": "inhibition", "setting": "NCI-H2228 [10]", "value": "Tde"}
    ]}
  ]
}
